We go through 13 compounds from patent US12258337B2, “Bicyclic CX3CR1 receptor agonists” (Board of Regents, The University of Texas System, priority 2019, dated 2025).

What all share (assay type): cell-based
Test [1] deals with T1, hCX3CR1 (Homo sapiens, UniProt P49238).
T1 sequence (P49238 1-355): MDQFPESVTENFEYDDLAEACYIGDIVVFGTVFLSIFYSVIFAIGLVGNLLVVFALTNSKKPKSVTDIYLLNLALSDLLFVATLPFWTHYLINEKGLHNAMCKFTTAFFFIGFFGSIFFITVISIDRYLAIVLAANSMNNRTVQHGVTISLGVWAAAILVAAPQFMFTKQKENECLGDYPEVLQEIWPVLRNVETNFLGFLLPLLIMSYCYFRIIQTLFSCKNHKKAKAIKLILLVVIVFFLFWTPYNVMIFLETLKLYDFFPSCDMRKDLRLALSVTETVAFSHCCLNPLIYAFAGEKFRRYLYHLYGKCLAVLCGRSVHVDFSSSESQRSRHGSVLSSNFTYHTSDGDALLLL
The test can be described thus: Suchi5 assay (HEK/NatClytin/CNG/Suchi5 transiently transfected hCX3CR1, Fluo-8 Ca2+ readout). Set-up: expressed in transfected cells; stably expresses a Ca2+ sensitive photo-protein. The note with it: Suchi5 assay, HEK/NatClytin/CNG/Suchi5 transfected with hCX3CR1; read-out: hCX3CR1 agonism EC50. On the procedure: Buffers and reagents. PBS (D-PBS without calcium and magnesium; EuroClone); Trypsin (Trypsin 0.05%, EDTA 0.02% in PBS; EuroClone); Opti-MEM medium (Thermo Fisher); DMSO (Sigma); Standard tyrode buffer: in-house solution (130 mM NaCl, 5 mM KCl, 2 mM CaCl2), 1 mM MgCl2, 5 mM NaHCO3, 20 mM HEPES in water at pH 7.4; sterile filtered); Screen Quest™ Fluo-8 No Wash Calcium Assay Kit (AAt Bioquest®); Lipofectamine® 2000 Reagent (Thermo Fisher); Agonist: Recombinant Human Fractalkine (CX3CL1) (PeproTech); stock: 10 μM in standard Tyrode buffer/BSA 01%; stored at −20° C.
Cell line. The final cell line for CX3CR1-Suchi5 assay is HEK/NatClytin/CNG/Suchi5 transiently transfected hCX3CR1 cDNA. In this cell line native Gαi signaling is switched to Gαq pathway thanks to the overexpression of a Gαiq chimeric G protein (called Suchi5) to direct Gαi activation towards Ca^2+ release for measurement.
Assay protocol. Experiments are performed in 384 MTP format. Transiently transfected cells are seeded at 20,000 cells/well in 25 μl/well Opti-MEM medium without selection antibiotics in 384-well plates. 4-5-hours later 25 μL/well of complete medium with 20% of FBS are added to the cells. Twenty-four hours later, cells are assayed for the response to various compounds using a fluorescent Ca^2+ sensitive dye (FLUO8-No Wash Dye) as readout.
The experiment is performed in a 384-well format according to the following procedure: • 24h after seeding, remove the culture medium. • Load cells with 20 μL/well of 0.5X FLUO-8 No Wash Dye diluted in assay buffer. • Incubate cell plates for 1 hour at RT. • Inject 10 μL/w of 3× concentrated test compounds and controls in assay buffer at the FLIPRTETRA and monitor the kinetic response over a period of 90 seconds.
Data from FLIPRTETRA measurements are analyzed with the Genedata Screener© software.

Test [2] addresses T2, rCX3CR1 (Rattus norvegicus, UniProt P35411).
T2 construct: expressed in transfected cells; stably expresses a Ca2+ sensitive photo-protein
T2 sequence (P35411 1-354): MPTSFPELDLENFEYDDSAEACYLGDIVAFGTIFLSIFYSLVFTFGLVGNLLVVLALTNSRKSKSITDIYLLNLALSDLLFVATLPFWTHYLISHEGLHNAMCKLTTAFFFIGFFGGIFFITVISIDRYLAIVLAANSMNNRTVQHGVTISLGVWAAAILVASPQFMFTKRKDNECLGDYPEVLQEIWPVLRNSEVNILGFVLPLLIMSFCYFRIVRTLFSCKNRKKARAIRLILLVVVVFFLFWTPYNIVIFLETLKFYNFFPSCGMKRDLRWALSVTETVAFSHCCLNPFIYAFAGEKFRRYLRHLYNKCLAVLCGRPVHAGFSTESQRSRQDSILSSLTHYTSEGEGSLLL
The test can be described thus: Ga16 assay, CX3CR1 agonism, Ca2+ sensitive photo-protein readout (FLIPRTETRA). The note with it: rat CX3CR1 cell line. The method, then:
(§1) Compounds (as well as stereoisomer(s) thereof and/or salt(s) thereof) were tested for CX3CR1 agonism in a cell based assay with fluorescent readout in Agonist Mode in dose response in quadruplicate with intra-plate modality).
(§2) Buffers and reagents. PBS (D-PBS without calcium and magnesium; EuroClone); Trypsin (Trypsin 0.05%, EDTA 0.02% in PBS; EuroClone); DMSO (Sigma); Standard tyrode buffer: in-house solution (130 mM NaCl, 5 mM KCl, 2 mM CaCl2), 1 mM MgCl2, 5 mM NaHCO3, 20 mM HEPES in water at pH 7.4; sterile filtered); Coelenterazine, native (Biosynth); stock 10 mM; Agonist: Recombinant Human Fractalkine (CX3CL1) (PeproTech); stock: 10 μM in standard tyrode buffer+BSA 0.1%; stored at −20° C.
(§3) Cell line. Human (hCX3CR1), mouse (mCX3CR1), and rat (rCX3CR1) were used for the assay.
(§4) Assay protocol. Experiments ere performed in 384 MTP format. Cells were seeded at 7,500 cells/well in 25 μl/well complete growth medium without selection antibiotics in 384-well plates. Twenty-four hours later, cells ere assayed for the response to various compounds using the Ca^2+ sensitive photo-protein stably expressed in the cells as readout.
(§5) The experiment was performed in a 384-well format according to the following procedure: • 24h after seeding, pre-incubate the cells at room temperature for 1 hour. • Then remove the culture medium. • Load cells with 20 μL/well of standard tyrode buffer+10 μM ceolenterazine. • Incubate cell plates for 3 hours at RT. • Inject 10 μL/w of 3× concentrated test compounds and controls in assay buffer at the FLIPRTETRA and monitor the kinetic response over a period of 90 seconds.
(§6) Data from FLIPRTETRA measurements were analyzed with the Genedata Screener© software. The following examples are meant to illustrate, but in no way to limit, the claimed invention.

Test [3] deals with T3, mCX3CR1 (Mus musculus, UniProt Q9Z0D9).
T3 construct: expressed in transfected cells; stably expresses a Ca2+ sensitive photo-protein
T3 sequence (Q9Z0D9 1-354): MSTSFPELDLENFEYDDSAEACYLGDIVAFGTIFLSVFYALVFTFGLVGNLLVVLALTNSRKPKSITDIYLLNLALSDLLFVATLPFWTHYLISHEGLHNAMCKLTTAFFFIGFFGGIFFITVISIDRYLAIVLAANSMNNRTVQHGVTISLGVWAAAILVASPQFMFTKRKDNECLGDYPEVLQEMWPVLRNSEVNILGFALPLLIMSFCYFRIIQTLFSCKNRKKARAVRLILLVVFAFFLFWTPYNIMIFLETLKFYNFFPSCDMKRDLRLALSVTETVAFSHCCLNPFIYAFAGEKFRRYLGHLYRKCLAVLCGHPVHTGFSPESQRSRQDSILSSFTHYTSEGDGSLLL
The description is as above. The following applies: mouse CX3CR1 cell line. The method, then:
as §1, §2, §3, §4, §5, §6

The target of test [4] is T1, hCX3CR1. The description is as above. Set-up: expressed in transfected cells; stably expresses a Ca2+ sensitive photo-protein. The note with it: human CX3CR1 cell line. On the procedure: as §1, §2, §3, §4, §5, §6

Each structure is given as a SMILES string.

For orientation: EC50 means the concentration that produces a half-maximal response. `CC1CCCC1(CNC(=O)c1cc2c(s1)CCCCCC2)CN(C)C` (single isomer, unassigned) [Example 60, N-[[1-[(dimethylamino)methyl]-2-methylcyclopentyl]methyl]-4,5,6,7,8,9-hexahydrocycloocta[b]thiophene-2-carboxamide]: the EC50 came to 10.3 µM in test [1], 18.9 µM in test [2], 89.8 µM in test [3] and 16.8 µM in test [4].

Regarding `CC1CCCC1(CNC(=O)c1cc2c(s1)CCCCCC2)CN(C)C` (single isomer, unassigned) [Example 61, N-[[1-[(dimethylamino)methyl]-2-methylcyclopentyl]methyl]-4,5,6,7,8,9-hexahydrocycloocta[b]thiophene-2-carboxamide], the EC50 was 6.8 µM in test [1], 15.2 µM in test [2], 33.8 µM in test [3] and 13.4 µM in test [4].

As for `O=C(NCC1(CN2CCC(O)C2)CCCC1)c1cc2c(s1)CCCCCC2` (single isomer, unassigned) [Example 63, N-[[1-[(3-hydroxypyrrolidin-1-yl)methyl]cyclopentyl]methyl]-4,5,6,7,8,9-hexahydrocycloocta[b]thiophene-2-carboxamide], the EC50 in test [1] was 9.6 µM; in test [2], 9.7 µM; in test [3], 13.5 µM; in test [4], 9.8 µM.

With `O=C(NCC1(CN2CCC(O)C2)CCCC1)c1cc2c(s1)CCCCCC2` (single isomer, unassigned) [Example 64, N-[[1-[(3-hydroxypyrrolidin-1-yl)methyl]cyclopentyl]methyl]-4,5,6,7,8,9-hexahydrocycloocta[b]thiophene-2-carboxamide], the EC50 turned out to be 8.7 µM in test [1], 9.1 µM in test [2], 13.7 µM in test [3] and 10.2 µM in test [4].

Consider `O=C(NCC1(CN2CCC2)CCOCC1)c1cc2c(s1)CCCCCC2` [Example 35, N-[[4-(azetidin-1-ylmethyl)oxan-4-yl]methyl]-4,5,6,7,8,9-hexahydrocycloocta[b]thiophene-2-carboxamide], for which the EC50 amounted to 12.1 µM in test [2], 18 µM in test [3] and 12.8 µM in test [4].

As for `O=C(NCC1(CN2CCC2)CCC1)c1cc2c(s1)CCCCCC2` [Example 36, N-[[1-(azetidin-1-ylmethyl)cyclobutyl]methyl]-4,5,6,7,8,9-hexahydrocycloocta[b]thiophene-2-carboxamide], the EC50 in test [2] is more than 100 µM; in test [3], more than 100 µM; in test [4], 9.1 µM.

On to `CN(C)CC1(CNC(=O)c2cc3c(s2)CCCCCC3)CCCOC1` (centres unmarked) [Example 37, N-[[3-[(dimethylamino)methyl]oxan-3-yl]methyl]-4,5,6,7,8,9-hexahydrocycloocta[b]thiophene-2-carboxamide], for which the results for the EC50 in test [2], in test [3] and in test [4] were 11.5 µM, 15 µM and 12.2 µM, respectively.

Consider `CN(C)CC1(CNC(=O)c2cc3c(s2)CCCCCC3)CCOC1` (centres unmarked) [Example 38, N-[[3-[(dimethylamino)methyl]oxolan-3-yl]methyl]-4,5,6,7,8,9-hexahydrocycloocta[b]thiophene-2-carboxamide], for which the concentration giving a half-maximal response (EC50) in test [2] is 13.1 µM; in test [3] it was 15.8 µM; in test [4] it was 10 µM.

Consider `O=C(NCC1(CN2CCCC2)CCOC1)c1cc2c(s1)CCCCCC2` (centres unmarked) [Example 39, N-[[3-(pyrrolidin-1-ylmethyl)oxolan-3-yl]methyl]-4,5,6,7,8,9-hexahydrocycloocta[b]thiophene-2-carboxamide], for which the EC50 in test [2] came to 10.9 µM; in test [3], 9.6 µM; in test [4], 11.1 µM.

As for `O=C(NCC1(CN2CCC(O)CC2)CCOCC1)c1cc2c(s1)CCCCCC2` [Example 40, N-[[4-[(4-hydroxypiperidin-1-yl)methyl]oxan-4-yl]methyl]-4,5,6,7,8,9-hexahydrocycloocta[b]thiophene-2-carboxamide], the EC50 is 74.9 µM in test [2], 83.8 µM in test [3] and 20.8 µM in test [4].

Turning to `O=C(NCC1(CN2CCC(O)CC2)CCC1)c1cc2c(s1)CCCCCC2` [Example 41, N-[[1-[(4-hydroxypiperidin-1-yl)methyl]cyclobutyl]methyl]-4,5,6,7,8,9-hexahydrocycloocta[b]thiophene-2-carboxamide], the EC50 was determined as 2.5 µM in test [1], 7.4 µM in test [2], 9.4 µM in test [3] and 8.6 µM in test [4].

With `COCCOC1CCN(CC(C)(C)CNC(=O)c2cc3c(s2)CCCCCC3)CC1` [Example 42, N-[3-[4-(2-methoxyethoxy)piperidin-1-yl]-2,2-dimethylpropyl]-4,5,6,7,8,9-hexahydrocycloocta[b]thiophene-2-carboxamide], the EC50 in test [2] was 81.4 µM; in test [3], more than 100 µM; in test [4], 22.6 µM.

Regarding `O=C(NCC1(CN2CCCC2)CCCOC1)c1cc2c(s1)CCCCCC2` (centres unmarked) [Example 44, N-[[3-(pyrrolidin-1-ylmethyl)oxan-3-yl]methyl]-4,5,6,7,8,9-hexahydrocycloocta[b]thiophene-2-carboxamide], the results for the EC50 in test [2], in test [3] and in test [4] were 8.4 µM, 10.8 µM and 9.6 µM, respectively.
